# ChEMBL document CHEMBL1201862, “PubChem BioAssay data set” (2004)
# Activity calls are given as the source filed them.
# Key:
# Bcl-2-related protein A1 = biological target: T1, Bcl-2-related protein A1 (Mus musculus, UniProt Q07440); type: functional;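 further: confirmatory dose–response counterscreen on Bfl-1, used to check hits from a UBC13 polyubiquitin inhibitor campaign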
# T1 sequence (Q07440 whole entry): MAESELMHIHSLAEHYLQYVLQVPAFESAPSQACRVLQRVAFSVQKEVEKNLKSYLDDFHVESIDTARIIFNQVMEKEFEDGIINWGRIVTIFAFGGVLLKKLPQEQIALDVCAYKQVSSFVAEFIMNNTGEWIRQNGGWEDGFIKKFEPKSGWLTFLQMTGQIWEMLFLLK
# [1] = biological target: Intestinal-type alkaline phosphatase (Mus musculus, UniProt P24822); test: PubChem AID 488785; type: functional
# [2] = biological target: T2, Ubiquitin-conjugating enzyme E2 N (Homo sapiens, UniProt P61088); type: functional
# T2 sequence (P61088 whole entry): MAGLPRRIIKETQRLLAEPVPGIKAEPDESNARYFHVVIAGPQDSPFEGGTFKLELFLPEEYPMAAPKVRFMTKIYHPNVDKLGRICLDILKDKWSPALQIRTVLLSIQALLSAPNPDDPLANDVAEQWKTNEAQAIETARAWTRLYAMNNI
# [3] = biological target: Intestinal-type alkaline phosphatase (Homo sapiens, UniProt P09923); test: inhibition of human intestinal alkaline phosphatase – biochemical, dose response (AID 488876); type: functional
# [4] = biological target: Heat shock protein HSP 90-alpha (Homo sapiens, UniProt P07900); type: functional, organism-based
# Insulin-degrading enzyme = biological target: T3, Insulin-degrading enzyme (Homo sapiens, UniProt P14735); test: recombinant IDE activation, cell-free – biochemical, fluorescence polarization, counter-screen for IDE activator project, dose response (AID 588681)
# T3 sequence (P14735 whole entry): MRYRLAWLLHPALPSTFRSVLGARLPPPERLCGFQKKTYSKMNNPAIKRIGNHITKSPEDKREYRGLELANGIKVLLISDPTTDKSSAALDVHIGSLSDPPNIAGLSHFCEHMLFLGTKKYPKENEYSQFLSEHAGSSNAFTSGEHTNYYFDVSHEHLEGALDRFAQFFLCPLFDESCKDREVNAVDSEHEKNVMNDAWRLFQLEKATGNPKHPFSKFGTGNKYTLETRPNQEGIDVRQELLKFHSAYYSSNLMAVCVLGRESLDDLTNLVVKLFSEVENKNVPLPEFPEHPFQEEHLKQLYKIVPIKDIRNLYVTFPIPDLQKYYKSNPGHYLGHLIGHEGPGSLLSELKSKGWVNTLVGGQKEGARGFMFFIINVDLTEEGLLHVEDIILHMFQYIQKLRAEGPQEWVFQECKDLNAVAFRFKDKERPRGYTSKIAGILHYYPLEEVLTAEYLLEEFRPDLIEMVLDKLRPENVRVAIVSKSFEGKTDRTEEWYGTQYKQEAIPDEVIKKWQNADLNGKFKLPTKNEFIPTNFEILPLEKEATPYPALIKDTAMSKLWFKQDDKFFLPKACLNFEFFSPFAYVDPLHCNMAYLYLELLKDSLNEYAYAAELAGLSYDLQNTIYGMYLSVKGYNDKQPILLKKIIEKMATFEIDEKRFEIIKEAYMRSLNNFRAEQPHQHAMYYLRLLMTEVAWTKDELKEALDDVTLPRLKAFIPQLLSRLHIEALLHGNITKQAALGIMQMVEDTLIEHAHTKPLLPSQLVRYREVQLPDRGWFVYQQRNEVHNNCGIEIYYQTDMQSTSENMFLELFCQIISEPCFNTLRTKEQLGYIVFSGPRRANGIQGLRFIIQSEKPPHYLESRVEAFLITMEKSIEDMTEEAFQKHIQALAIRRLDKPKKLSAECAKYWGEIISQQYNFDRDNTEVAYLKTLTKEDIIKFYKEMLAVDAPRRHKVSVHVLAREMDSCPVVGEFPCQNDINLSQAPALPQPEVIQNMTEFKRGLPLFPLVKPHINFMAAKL
# [5] = biological target: T4, Apoptotic protease-activating factor 1 (Homo sapiens, UniProt O14727); type: functional
# T4 sequence (O14727 whole entry): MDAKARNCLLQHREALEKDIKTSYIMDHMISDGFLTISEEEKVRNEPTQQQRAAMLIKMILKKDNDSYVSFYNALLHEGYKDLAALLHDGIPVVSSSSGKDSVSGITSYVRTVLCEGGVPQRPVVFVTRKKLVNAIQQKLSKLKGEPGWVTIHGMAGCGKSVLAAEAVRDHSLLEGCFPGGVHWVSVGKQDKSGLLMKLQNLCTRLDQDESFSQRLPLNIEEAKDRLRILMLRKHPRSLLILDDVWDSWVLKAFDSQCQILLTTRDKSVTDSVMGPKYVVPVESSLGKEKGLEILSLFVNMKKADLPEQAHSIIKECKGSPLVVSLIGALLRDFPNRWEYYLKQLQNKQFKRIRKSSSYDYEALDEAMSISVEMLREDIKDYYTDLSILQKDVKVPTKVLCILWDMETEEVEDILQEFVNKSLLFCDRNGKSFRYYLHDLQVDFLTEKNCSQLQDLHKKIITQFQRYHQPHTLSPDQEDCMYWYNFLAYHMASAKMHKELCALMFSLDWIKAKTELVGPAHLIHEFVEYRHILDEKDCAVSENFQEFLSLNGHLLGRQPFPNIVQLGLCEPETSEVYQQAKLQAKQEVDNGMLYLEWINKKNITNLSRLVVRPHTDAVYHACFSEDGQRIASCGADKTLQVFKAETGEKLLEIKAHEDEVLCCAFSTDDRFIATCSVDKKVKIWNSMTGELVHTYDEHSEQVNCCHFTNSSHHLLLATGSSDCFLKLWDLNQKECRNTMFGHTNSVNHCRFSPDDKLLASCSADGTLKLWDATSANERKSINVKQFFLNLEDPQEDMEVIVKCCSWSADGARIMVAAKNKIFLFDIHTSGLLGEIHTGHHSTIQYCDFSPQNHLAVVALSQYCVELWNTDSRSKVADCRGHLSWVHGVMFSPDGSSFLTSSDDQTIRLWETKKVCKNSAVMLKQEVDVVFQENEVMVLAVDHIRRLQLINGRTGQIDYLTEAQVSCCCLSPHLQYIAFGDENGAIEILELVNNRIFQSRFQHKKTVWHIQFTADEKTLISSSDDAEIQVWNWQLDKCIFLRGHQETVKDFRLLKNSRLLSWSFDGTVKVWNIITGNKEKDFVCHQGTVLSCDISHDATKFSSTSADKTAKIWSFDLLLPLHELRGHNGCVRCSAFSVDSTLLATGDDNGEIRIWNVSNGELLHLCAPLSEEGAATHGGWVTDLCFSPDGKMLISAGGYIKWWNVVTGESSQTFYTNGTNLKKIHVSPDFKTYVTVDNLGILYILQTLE
# [6] = biological target: T5, Small ubiquitin-related modifier 1 (Homo sapiens, UniProt P63165); test: SUMO1 protein interaction blockers, potency – biochemical, fluorescence polarization, uHTS hits, dose response (AID 624382); type: functional; settings: read-out: IC50_Mean
# [7] = biological target: T5, Small ubiquitin-related modifier 1; test: SUMO1 protein-protein binding blockers, potency – biochemical, FRET, dose response (AID 624383); type: functional; settings: read-out: IC50_Mean
# T5 sequence (P63165 whole entry): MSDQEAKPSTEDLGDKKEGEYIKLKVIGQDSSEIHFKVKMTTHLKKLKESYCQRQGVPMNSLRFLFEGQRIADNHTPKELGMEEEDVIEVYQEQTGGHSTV
# Intestinal-type alkaline phosphatase (Mus musculus, UniProt P24822), sequence (P24822 whole entry): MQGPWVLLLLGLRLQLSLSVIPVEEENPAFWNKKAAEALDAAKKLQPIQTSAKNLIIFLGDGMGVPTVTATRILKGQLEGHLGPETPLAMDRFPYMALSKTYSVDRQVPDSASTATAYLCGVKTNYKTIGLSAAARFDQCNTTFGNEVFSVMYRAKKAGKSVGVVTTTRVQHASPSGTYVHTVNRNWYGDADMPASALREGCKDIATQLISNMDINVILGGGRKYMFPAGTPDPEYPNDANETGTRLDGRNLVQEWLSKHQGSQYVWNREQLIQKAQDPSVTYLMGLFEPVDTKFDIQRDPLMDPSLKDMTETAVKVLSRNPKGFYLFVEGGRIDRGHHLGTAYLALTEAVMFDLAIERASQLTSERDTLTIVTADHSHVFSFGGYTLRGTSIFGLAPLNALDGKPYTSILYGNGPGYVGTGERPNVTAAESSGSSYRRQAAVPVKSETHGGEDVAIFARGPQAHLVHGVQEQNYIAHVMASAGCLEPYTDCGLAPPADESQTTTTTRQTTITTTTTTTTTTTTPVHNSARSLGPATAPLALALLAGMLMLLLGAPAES
# Intestinal-type alkaline phosphatase (Homo sapiens, UniProt P09923), sequence (P09923 whole entry): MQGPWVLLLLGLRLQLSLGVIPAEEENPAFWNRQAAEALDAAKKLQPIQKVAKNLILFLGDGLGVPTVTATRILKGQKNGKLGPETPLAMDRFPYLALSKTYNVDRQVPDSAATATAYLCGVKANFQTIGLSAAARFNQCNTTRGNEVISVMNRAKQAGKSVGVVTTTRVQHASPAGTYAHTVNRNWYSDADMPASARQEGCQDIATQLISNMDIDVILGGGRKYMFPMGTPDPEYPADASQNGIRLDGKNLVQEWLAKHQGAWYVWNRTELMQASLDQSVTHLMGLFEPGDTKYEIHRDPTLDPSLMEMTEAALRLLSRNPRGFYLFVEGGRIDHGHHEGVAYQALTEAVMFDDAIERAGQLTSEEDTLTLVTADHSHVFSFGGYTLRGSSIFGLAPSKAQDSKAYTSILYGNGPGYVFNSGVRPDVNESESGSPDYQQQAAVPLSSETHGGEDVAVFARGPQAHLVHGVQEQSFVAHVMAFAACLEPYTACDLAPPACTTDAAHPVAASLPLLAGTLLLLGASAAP
compound,measurement,setting,value
Clc1ccc(C(c2ccc(Cl)cc2)n2cc[n+](CC(OCc3ccc(Cl)cc3Cl)c3ccc(Cl)cc3Cl)c2)cc1 (centres undefined) [CALMIDAZOLIUM CHLORIDE],IC50,Bcl-2-related protein A1,6.23 µM (active)
same,IC50,[1],14.6 µM (active)
same,IC50,[2],5.6 µM (active)
same,IC50,[3],> 100 µM (inactive)
same,AC50,[4],7.07 µM (active)
same,EC50,Insulin-degrading enzyme,> 54.7 µM (inactive)
same,IC50,[5],12.7 µM (active)
same,IC50,[6],> 66.6 µM (inactive)
same,IC50,[7],5.89 µM (active)
